From the supplement of paper PMC13380429
Counter-ions that a name gives are not always drawn.

How the values were obtained:
Details in all cases: 72 h
[1] = system: Vero E6; test: cell viability relative to DMSO; higher = less toxic
[2] = system: Caco-2; test: as above
[3] = system: Calu-3; test: as above
[4] = system: HepG2; test: as above
[5] = system: U2OS; test: as above
[6] = system: Vero E6; test: drug sensitivity score (DSS) for viability; higher = more toxic; extreme values may be limits of the assay
[7] = system: Caco-2; test: as above
[8] = system: Calu-3; test: as above
[9] = system: HepG2; test: as above
[10] = system: U2OS; test: as above
[11] = system: Vero E6; test: relative viability EC50 (midpoint between 100% and the lowest measured viability); higher = less toxic
[12] = system: Caco-2; test: as above
[13] = system: Calu-3; test: as above
[14] = system: HepG2; test: as above
[15] = system: U2OS; test: as above

Compound | cell viability ([1]; 1 nM) [%] | cell viability ([1]; 10 nM) [%] | cell viability ([1]; 100 nM) [%] | cell viability ([1]; 1000 nM) [%] | cell viability ([1]; 10000 nM) [%] | cell viability ([2]; 1 nM) [%] | cell viability ([2]; 10 nM) [%] | cell viability ([2]; 100 nM) [%] | cell viability ([2]; 1000 nM) [%] | cell viability ([2]; 10000 nM) [%] | cell viability ([3]; 1 nM) [%] | cell viability ([3]; 10 nM) [%] | cell viability ([3]; 100 nM) [%] | cell viability ([3]; 1000 nM) [%] | cell viability ([3]; 10000 nM) [%] | cell viability ([4]; 1 nM) [%] | cell viability ([4]; 10 nM) [%] | cell viability ([4]; 100 nM) [%] | cell viability ([4]; 1000 nM) [%] | cell viability ([4]; 10000 nM) [%] | cell viability ([5]; 1 nM) [%] | cell viability ([5]; 10 nM) [%] | cell viability ([5]; 100 nM) [%] | cell viability ([5]; 1000 nM) [%] | cell viability ([5]; 10000 nM) [%] | drug sensitivity score [6] | drug sensitivity score [7] | drug sensitivity score [8] | drug sensitivity score [9] | drug sensitivity score [10] | relative viability EC50 [11] [µM] | relative viability EC50 [12] [µM] | relative viability EC50 [13] [µM] | relative viability EC50 [14] [µM] | relative viability EC50 [15] [µM]
O[C@@H]1CCCC[C@H]1N1CCC(c2ccccc2)CC1 (racemic) [vesamicol] | 94 | 95.6 | 93.3 | 101 | 102 | 95.3 | 83.6 | 99.5 | 92.9 | 95.2 | 101 | 106 | 113 | 105 | 97.2 | 85.7 | 111 | 102 | 97.1 | 98 | 95.2 | 96.5 | 102 | 101 | 101 | 0 | 0 | 0 | 0 | 0 | > 10 | > 10 | > 10 | > 10 | > 10
c1ccc2c(Cc3c[nH]c4ccccc34)c[nH]c2c1 [3,3'-diindolylmethane] | 99 | 102 | 100 | 93.4 | 89.3 | 108 | 117 | 91.3 | 117 | 102 | 104 | 98.5 | 97.2 | 104 | 98.6 | 93.6 | 101 | 97 | 86.8 | 91.7 | 100 | 102 | 101 | 104 | 94.3 | 0.1 | 0 | 0 | 1.1 | 0 | > 10 | > 10 | > 10 | > 10 | > 10
O=[N+]([O-])c1cccc2c(Br)n[nH]c12 [3-bromo-7-nitroindazole] | 100 | 97.5 | 98.6 | 95.8 | 91.2 | 106 | 102 | 93.8 | 104 | 99.3 | 102 | 88.4 | 97.3 | 87 | 98.2 | 94.4 | 99 | 98.3 | 97.5 | 102 | 97.6 | 101 | 99 | 104 | 98.8 | 0 | 0 | 0 | 0 | 0 | > 10 | > 10 | > 10 | > 10 | > 10
NS(=O)(=O)c1ccc2c(c1)C1C=CCC1C(c1ccc(Br)cc1)N2 (stereo not given) [4BP-TQS] | 104 | 99.1 | 102 | 104 | 100 | 102 | 97.1 | 99.6 | 98.5 | 97.1 | 110 | 89.3 | 101 | 96.3 | 105 | 101 | 105 | 89.5 | 91.5 | 94 | 97.8 | 98.6 | 103 | 96.6 | 97.5 | 0 | 0 | 0 | 0.2 | 0 | > 10 | > 10 | > 10 | > 10 | > 10
CCCN(CCC)[C@H]1CCc2ccc(O)cc2C1 [7-hydroxy-DPAT] | 101 | 105 | 101 | 104 | 99.4 | 96.5 | 95.4 | 106 | 100 | 96.4 | 92.7 | 89.7 | 98.7 | 102 | 96 | 112 | 106 | 92.8 | 99.9 | 99.5 | 101 | 97.1 | 101 | 104 | 103 | 0 | 0 | 0 | 0 | 0 | > 10 | > 10 | > 10 | > 10 | > 10
C/C=C1\[C@H]2C=C(C)C[C@]1(N)c1ccc(=O)[nH]c1C2 [(-)-Huperzine A] | 93 | 96.8 | 98 | 90.7 | 107 | 103 | 97.7 | 90.6 | 100 | 107 | 91 | 96.7 | 96.1 | 106 | 101 | 106 | 97.4 | 102 | 93 | 97.5 | 95.1 | 101 | 98.8 | 103 | 98.3 | 0 | 0 | 0 | 0 | 0 | > 10 | > 10 | > 10 | > 10 | > 10
COCC1(CO)C(=O)C2CCN1CC2 (stereo not given) [APR-246] | 97.1 | 99.3 | 96.6 | 97.8 | 93.1 | 99.5 | 94.7 | 95.1 | 94.2 | 94.6 | 96.7 | 87.5 | 111 | 90.4 | 94.5 | 93 | 99.7 | 96.6 | 112 | 91.8 | 100 | 94.9 | 99.8 | 96.3 | 99.5 | 0 | 0 | 0 | 0 | 0 | > 10 | > 10 | > 10 | > 10 | > 10
C=CC(=O)Nc1cccc(Nc2nc(Nc3ccc(OCCOC)cc3)ncc2F)c1 [AVL-292] | 96.9 | 94.5 | 94.9 | 82.5 | 11.9 | 85.2 | 90.8 | 102 | 78.3 | 21.5 | 100 | 106 | 92.2 | 97.2 | 27.2 | 101 | 95.7 | 101 | 80.5 | 29.7 | 100 | 100 | 94.9 | 91.5 | 9 | 7.7 | 7.6 | 4.4 | 6.8 | 6.4 | 1.74 | 1.47 | 2.87 | 1.47 | 2.39
N#Cc1ccc2[nH]c(O)c(-c3ccc(CN4CCOCC4)cn3)c2c1 [AZD1080] | 99.1 | 97.6 | 98.2 | 108 | 82 | 96.3 | 100 | 106 | 113 | 84.6 | 105 | 107 | 100 | 112 | 91.2 | 107 | 99.3 | 102 | 112 | 82.7 | 95.3 | 105 | 95.8 | 105 | 99.5 | 0.2 | 0.1 | 0 | 0.2 | 0 | > 10 | > 10 | > 10 | > 10 | > 10
CC[C@@H]1C(=O)N(C)c2cnc(Nc3ccc(C(=O)NC4CCN(C)CC4)cc3OC)nc2N1C1CCCC1 [BI-2536] | 96.2 | 98.7 | 103 | 37.4 | 1.1 | 94.4 | 96.5 | 56.8 | 61.3 | 31.5 | 93.3 | 97.3 | 85.4 | 77.7 | 3.8 | 106 | 92.2 | 27.4 | 24.2 | 7.7 | 97 | 103 | 53.1 | 28 | 8.1 | 12.8 | 13.6 | 8.6 | 26.1 | 19.8 | 0.805 | 0.148 | 1.66 | 0.0445 | 0.132
CC1(C)CCC(C)(C)c2cc(C3(c4ccc(C(=O)O)cc4)OCCO3)ccc21 [BMS-649] | 96 | 97.6 | 100 | 92.4 | 97.8 | 92.7 | 95.5 | 93.1 | 100 | 101 | 96.7 | 99 | 100 | 91.5 | 109 | 109 | 87.6 | 113 | 108 | 103 | 95.2 | 98.4 | 101 | 103 | 99 | 0 | 0 | 0 | 0 | 0 | > 10 | > 10 | > 10 | > 10 | > 10
C=CCN1C[C@H](C)N([C@H](c2ccc(C(=O)N(CC)CC)cc2)c2cccc(O)c2)C[C@H]1C [BW-373U86] | 105 | 100 | 105 | 94.9 | 104 | 101 | 102 | 96.1 | 96.7 | 95.2 | 92.9 | 103 | 107 | 102 | 101 | 95.5 | 93.7 | 101 | 86.9 | 96.3 | 100 | 102 | 96 | 104 | 97.8 | 0 | 0 | 0 | 0 | 0 | > 10 | > 10 | > 10 | > 10 | > 10
CCC[C@@H]1C[C@@H](C(=O)N[C@@H]([C@H]2O[C@H](SC)[C@H](O)[C@@H](O)[C@H]2O)[C@H](C)Cl)N(C)C1 [CLINDAMYCIN HYDROCHLORIDE] | 95.3 | 89.8 | 93.8 | 91.2 | 104 | 95.6 | 95.7 | 95.3 | 108 | 108 | 100 | 96.7 | 98.9 | 102 | 102 | 103 | 93 | 104 | 100 | 97.6 | 97.6 | 102 | 99.2 | 105 | 103 | 0 | 0 | 0 | 0 | 0 | > 10 | > 10 | > 10 | > 10 | > 10
CCNC1(C(N)=O)CCN(c2ncnc3c2nc(-c2ccccc2Cl)n3-c2ccc(Cl)cc2)CC1 [CP-945,598] | 101 | 103 | 98.6 | 101 | 104 | 96.2 | 98.9 | 88.3 | 80.7 | 89.3 | 109 | 102 | 97.5 | 108 | 104 | 103 | 95.6 | 100 | 95.3 | 86.6 | 104 | 104 | 101 | 98.1 | 95.7 | 0 | 3.1 | 0 | 0.4 | 0 | > 10 | > 10 | > 10 | > 10 | > 10
